# Laboratory results as given in patent US9451768B2, “Biocidal compositions and methods of use” (priority 2009, dated 2016).
# Experiments:
# [1] = test system: oil field isolated anaerobic SRB consortium; assay: Anaerobic bacteria under sulfide-rich and multiple challenge conditions (Example 4); type: cell-based, anaerobic sulfate-reducing bacteria (SRB); details: room temperature, daily challenge with SRB and 10 ppm sulfide ion
# Procedure: (§1) The synergy indexes reported in the following examples are calculated using the following equation: Synergy Index=Ca/CA+Cb/CB
# Various methods known to those skilled in the art can be used for evaluating biocidal efficacy. In the examples below, aliquots of the treated samples are removed at predetermined time points and the concentration required to achieve a certain level or complete bacterial kill is determined by culture-based methods including serial dilution. In some examples, the method is based or adapted (e.g., for high temperature testing or for the presence of sulfide) from the methodology described in international application PCT/US08/075,755, filed Sep. […]
# Inside an anaerobic chamber, biocide solutions of DBNPA, CTAC, and DBNPA/CTAC combinations at various concentrations are prepared in a salt solution (3.1183 g of NaCl, 1.3082 mg of NaHCO3, 47.70 mg of KCl, 72.00 mg of CaCl2, 54.49 mg of MgSO4, 172.28 mg of Na2SO4, 43.92 mg of Na2CO3 in 1 L water). […] The viable bacteria left in the mixtures is determined at different incubation times up to 7 days, using a serial dilution method. Bacterial log reduction is then calculated. The biocidal efficacy is determined by selecting the lowest biocide concentration required to achieve at least a 99.9% bacterial reduction for all three of the following time points: 2 hour, 1 day, and 7 days. Synergy index is then calculated.
# [2] = test system: mixed bacteria consortium (Pseudomonas aeruginosa ATCC 10145, Pseudomonas aeruginosa ATCC 15422, Enterobacter aerogenes ATCC 13048, Escherichia coli ATCC …); assay: Re-challenge test against aerobic mixed bacteria consortium (Example 3); type: cell-based; details: ambient temperature; for Dose required for ≧4 log10 bacteria reduction (ppm), CTAC: CTAC alone or CTAC part of DBNPA/CTAC combination; for Dose required for ≧4 log10 bacteria reduction (ppm), DBNPA: DBNPA alone or DBNPA part of DBNPA/CTAC combination
# Procedure: as §1
# (§2) Various methods known to those skilled in the art can be used for evaluating biocidal efficacy. In the examples below, aliquots of the treated samples are removed at predetermined time points and the concentration required to achieve a certain level or complete bacterial kill is determined by culture-based methods including serial dilution. In some examples, the method is based or adapted (e.g., for high temperature testing or for the presence of sulfide) from the methodology described in international application PCT/US08/075,755, filed Sep. 10, 2008, which is incorporated herein by reference.
# (§3) DBNPA and CTAC is added to a sterile solution of synthetic surface water (CaCl2 0.2203 g, MgSO4 0.1847 g, NaHCO3 0.1848 g, DI water 1 L) both alone and in various combinations. An initial inoculum of a mixed bacteria consortium (Pseudomonas aeruginosa ATCC 10145, Pseudomonas aeruginosa ATCC 15422, Enterobacter aerogenes ATCC 13048, Escherichia coli ATCC 11229, Klebsiella pneumoniae ATCC 8308, Staphylococcus aureus ATCC 6538, Salmonella choleraesuis ATCC 10708) is added to each biocidal solution at a final concentration of 5×10^6 CFU/mL. After 2, 6 and 13 days, the biocidal solutions are re-challenged with the same bacteria consortium to a final concentration of 5×10^4 CFU/mL of additional bacteria. All treatments are incubated at ambient temperatures. The results are shown in Table 7 which reports the biocide concentrations required to achieve a ≧4 log10 kill reduction in microorganisms.
# [3] = test system: oil field isolated anaerobic SRB consortium; assay: MBC against anaerobic SRB consortium, 40° C., 24 hour (Example 1); type: cell-based, anaerobic sulfate-reducing bacteria (SRB)
# Procedure: as §1, §2
# Inside an anaerobic chamber, a deaerated sterile salt solution (3.1183 g of NaCl, 1.3082 mg of NaHCO3, 47.70 mg of KCl, 72.00 mg of CaCl2, 54.49 mg of MgSO4, 172.28 mg of Na2SO4, 43.92 mg of Na2CO3 in 1 L water) is contaminated with an oil field isolated anaerobic SRB consortium at final bacterial concentrations of 10^6-10^7 CFU/mL. Aliquots of this contaminated water are then treated with biocide solution (single or in combination) at various concentrations.
# [4] = test system: mixed bacteria consortium (Pseudomonas aeruginosa ATCC 10145, Pseudomonas aeruginosa ATCC 15422, Enterobacter aerogenes ATCC 13048, Escherichia coli ATCC …); assay: Ternary DBNPA, CTAC and bronopol combination, re-challenge test against mixed bacteria consortium (Example 6); type: cell-based, mixed aerobic bacteria; details: for Dose required for >4 log10 bacterial reduction vs. control, CTAC: CTAC alone or CTAC part of DBNPA:bnpd:CTAC combination; for Dose required for >4 log10 bacterial reduction vs. control, DBNPA: DBNPA alone or DBNPA part of DBNPA:bnpd:CTAC combination; for Dose required for >4 log10 bacterial reduction vs. control, bnpd: bnpd alone or bnpd part of DBNPA:bnpd:CTAC combination
# Procedure: as §1, §2
# as §3, with “DBNPA, bronopol, and” for “DBNPA and”, “CTAC are” for “CTAC is”, “g, deionized” for “g, DI”, “Table 10” for “Table 7”
# [5] = test system: oil field isolated anaerobic SRB consortium; assay: Anaerobic bacteria under high temperature, sulfide-rich and re-challenge conditions (Example 5); type: cell-based, anaerobic sulfate-reducing bacteria (SRB); details: 80° C., daily challenge with SRB and 10 ppm sulfide ion
# Procedure: as §1, §2
# Inside an anaerobic chamber, biocide solutions of DBNPA, CTAC, and DBNPA/CTAC combinations at various concentrations are prepared in a salt solution (3.1183 g of NaCl, 1.3082 mg of NaHCO3, 47.70 mg of KCl, 72.00 mg of CaCl2, 54.49 mg of MgSO4, 172.28 mg of Na2SO4, 43.92 mg of Na2CO3 in 1 L water). […] After heating at 80 C for 2 hours, biocidal efficacy is evaluated against the field SRB consortium at 40° C. for 2 h. The same samples, after heating for 1 day to 7 days at 80 C, are evaluated against the field SRB consortium at 40 C for 24 h. […]
# [6] = test system: Psedomonas aeruginosa ATCC 10145 and Staphylococcus aureus ATCC 6538; assay: MBC against aerobic bacteria, 37° C., 24 hour (Example 2); type: cell-based
# Procedure: as §1, §2
# A sterile NaCl solution (0.85%) is contaminated with Psedomonas aeruginosa ATCC 10145 and Staphylococcus aureus ATCC 6538 at a final bacterial concentration of ˜10^6 CFU/ml. Aliquots of this contaminated water are then treated with biocide solution (single or in combination) at various concentrations.
# [7] = CTAC alone or CTAC part of DBNPA/CTAC combination
# [8] = Day 3 after initial inoculation
# [9] = Day 20 after initial inoculation
# [10] = Day 27 after initial inoculation
# [11] = DBNPA alone or DBNPA part of DBNPA/CTAC combination
# [12] = DBNPA alone or DBNPA part of DBNPA/HHT combination
# [13] = DBNPA alone or DBNPA part of DBNPA/tris nitro combination
# [14] = HHT alone or HHT part of DBNPA/HHT combination
# [15] = tris nitro alone or tris nitro part of DBNPA/tris nitro combination
smiles,measurement,setting,value
"ClC=CC[N+]12CN3CN(CN(C3)C1)C2 [CTAC, 1-(3-chloroallyl)-3,5,7-triaza-1-azoniaadamantane]","Lowest biocide concentration required for ≧99.9% bacterial reduction for 2 h, 1 day, and 7 days (ppm), CTAC",[1]; [7],>360.0 ppm
same,"Dose required for ≧4 log10 bacteria reduction (ppm), CTAC",[2]; [8],>750 ppm
same,"Dose required for ≧4 log10 bacteria reduction (ppm), CTAC",[2]; [9],>750 ppm
same,"Dosage required for complete bacterial reduction (ppm), CTAC",[3]; [7],87.5 ppm
same,"Dose required for >4 log10 bacterial reduction vs. control, CTAC",[4]; [8],>750
same,"Dose required for >4 log10 bacterial reduction vs. control, CTAC",[4]; [10],>750
same,"Lowest biocide concentration required for ≧99.9% bacterial reduction for 2 h, 1 day, and 7 days (ppm), CTAC",[5]; [7],180 ppm
same,"Dosage required for complete bacterial reduction (ppm), CTAC",[6]; [7],>159 ppm
"N#CC(Br)(Br)C(N)=O [DBNPA, 2,2-dibromo-3-nitrilopropionamide]","Lowest biocide concentration required for ≧99.9% bacterial reduction for 2 h, 1 day, and 7 days (ppm), DBNPA",[1]; [11],60.0 ppm
same,"Dose required for ≧4 log10 bacteria reduction (ppm), DBNPA",[2]; [8],>167 ppm
same,"Dose required for ≧4 log10 bacteria reduction (ppm), DBNPA",[2]; [9],>250 ppm
same,"Dosage required for complete bacterial reduction (ppm), DBNPA",[3]; [11],9.1 ppm
same,"Dosage required for complete bacterial reduction (ppm), DBNPA",[3]; [12],7.0 ppm
same,"Dosage required for complete bacterial reduction (ppm), DBNPA",[3]; [13],8.9 ppm
same,"Dose required for >4 log10 bacterial reduction vs. control, DBNPA",[4]; [8],<12
same,"Dose required for >4 log10 bacterial reduction vs. control, DBNPA",[4]; [10],>75
same,"Lowest biocide concentration required for ≧99.9% bacterial reduction for 2 h, 1 day, and 7 days (ppm), DBNPA",[5]; [11],>120 ppm
same,"Dosage required for complete bacterial reduction (ppm), DBNPA",[6]; [11],8.9 ppm
same,"Dosage required for complete bacterial reduction (ppm), DBNPA",[6]; [12],8.9 ppm
same,"Dosage required for complete bacterial reduction (ppm), DBNPA",[6]; [13],9.9 ppm
"OCCN1CN(CCO)CN(CCO)C1 [HHT, hexahydro-1,3,5-tris(2-hydroxyethyl)-s-triazine]","Dosage required for complete bacterial reduction (ppm), HHT",[3]; [14],113.8 ppm
same,"Dosage required for complete bacterial reduction (ppm), HHT",[6]; [14],94.2 ppm
"O=[N+]([O-])C(Br)(CO)CO [bnpd, 2-bromo-2-nitropropane-1,3-diol]","Dose required for >4 log10 bacterial reduction vs. control, bnpd",[4]; [8],32
same,"Dose required for >4 log10 bacterial reduction vs. control, bnpd",[4]; [10],>200
"O=[N+]([O-])C(CO)(CO)CO [tris nitro, tris(hydroxymethyl)nitromethane]","Dosage required for complete bacterial reduction (ppm), tris nitro",[3]; [15],29.6 ppm
same,"Dosage required for complete bacterial reduction (ppm), tris nitro",[6]; [15],104.6 ppm
